Consider one compound from patent publication US20080098491A1, “MOUSE MODELS TO STUDY CACHEXIA” (ZOLTAN LABORATORIES LLC, priority 2006, published 2008).

This data set relates to MXT mouse mammary tumor. The data set can be described thus: Cisplatin-treated MXT mouse mammary tumor model, PALP and TF (Example 9, Experiment 1). The data set is classed as in vivo. Conditions: for Body weight (total weight minus tumor weight) / Total weight / Tumor weight: every second day from day 7 (7-times): cisplatin 3-mg/kg i.p., purified PALP 16, commercial PALP 60, TF 14 mg/kg s.c. From the text:
The B16 mouse melanoma and MXT mouse mammary tumors were developed in first generation hybrid BDF1 (C57 B1 female×DBA/2 male) adult female mice kept at specified pathogen free (SPF) hygienic level. These models were chosen for these experiments because these mice have the complete immune system, and both tumors grow very rapidly. To develop the tumors, B16 and MXT tumor tissue fragments of about 0.1-cm^3 were surgically implanted subcutaneously into the intrascapular region to develop the tumors. Each tumor fragment contained about 1-1.5×10^6 cells. The animals were kept in macrolon cages on ventilated rack at 22-24° C. (50-60% humidity) with lighting regimen of 12/12 h light/dark. The animals had free access to tap water and were fed with sterilized standard diet (Charles River VRF1, Germany) ad libitum. The animals were taken care of according to the “Guiding Principle for the care and use of Animals” based upon the Helsinki declaration and they were approved by the local ethical committee.
In case of both tumor models the tumor size was usually in the range of 0.2 to 0.5-g when treatments started 7-11 days after tumor implantation; the mice were selected so that in the same treatment group the difference in tumor size was no greater than 0.1 gram. In some experiments, the test proteins were suspended in physiological saline and injected in 50-μl volume subcutaneously in the vicinity of tumor (within 1-cm of tumor margin). In other experiments, the test proteins were dispersed in Vaselinum cholesteratum and used topically; 150-mg cream was applied on the tumor and the vicinity of tumor area (with about 0.5-cm of the tumor margin). The tumor volume was determined by using calipers; this technique is well known to one having ordinary skill in the art. Tumor volume was calculated according to the generally accepted formula: V=a^2×b×7r/6, where “a” and “b” mean the shortest and longest diameter, respectively, of the measured tumor.
Experiment 1. The mouse MXT mammary tumor was developed as described in Example 3. In the first group, animals remained untreated during the whole observation period. In the second group, starting on the 7th day after tumor implantation, mice were intraperitoneally (i.p.) administered 3-mg per 1-kg total weight of cisplatin 7-times every second day. In the third group, starting on the 7th day after tumor implantation, mice were simultaneously administered 3-mg per 1-kg of cisplatin i.p. and 16-mg per 1-kg of purified PALP s.c. In the fourth group, starting on the 7th day after tumor implantation, mice were simultaneously administered 3-mg per 1-kg of cisplatin i.p. and 60-mg per 1-kg of commercial PALP s.c. In the fifth group, starting on the 7th day after tumor implantation, mice were simultaneously administered 3-mg per 1-kg of cisplatin i.p. and 14-mg per 1-kg of commercial TF (T 3309 in the Sigma catalog) s.c. Each treatment was performed 7-times on every second day. Each group included 7 animals. The mean values for total weight, tumor weight and body weight (the difference between total and tumor weight) are shown in TABLE 6.

The mark [1] stands for this setting: day 7 after tumor transplantation.
Setting [2] is: day 11 after tumor transplantation.
The mark [3] stands for this setting: day 14 after tumor transplantation.
[4] abbreviates: day 16 after tumor transplantation.
Setting [5] is: day 18 after tumor transplantation.
[6] abbreviates: day 21 after tumor transplantation.

`N.N.[Cl][Pt][Cl]` [Cisplatin, cisplatin]: the “Body weight (total weight minus tumor weight)” value under setting [1] is listed as 22.45 g; the “Body weight (total weight minus tumor weight)” value under setting [2] came to 22.10 g; the “Body weight (total weight minus tumor weight)” value under setting [3] worked out at 19.50 g; the “Body weight (total weight minus tumor weight)” value under setting [4] was found to be 16.90 g; the “Body weight (total weight minus tumor weight)” value under setting [5] is on record as 16.30 g; the “Body weight (total weight minus tumor weight)” value under setting [6] is 15.10 g. Further, the Total weight runs as follows: under setting [1], 22.70 g; under setting [2], 23.10 g; under setting [3], 21.70 g; under setting [4], 20.10 g; under setting [5], 20.10 g; under setting [6], 19.20 g. The Tumor weight worked out at 0.25 g under setting [1]; 1.00 g under setting [2]; 2.20 g under setting [3]; 3.20 g under setting [4]; 3.80 g under setting [5]; 4.10 g under setting [6]. Under “from day 11 to day 23, cisplatin 3-mg/kg i.p. every second day”, the “Decrease in body weight” value is ~33%.
